The source made the active and inactive calls. The rule behind the calls is not given here. Where a SMILES comes first, the peptide text is derived from it. [ ]: non-standard residue; d: D form.
How the values were obtained:
[1] = molecular target: T1, 5-hydroxytryptamine receptor 1A (Homo sapiens, UniProt P08908); test: (§1) Displacement of [3H]8-OH-DPAT from human recombinant 5HT1A receptor expressed in CHO cells; format: cell-based
T1 sequence (P08908 whole entry): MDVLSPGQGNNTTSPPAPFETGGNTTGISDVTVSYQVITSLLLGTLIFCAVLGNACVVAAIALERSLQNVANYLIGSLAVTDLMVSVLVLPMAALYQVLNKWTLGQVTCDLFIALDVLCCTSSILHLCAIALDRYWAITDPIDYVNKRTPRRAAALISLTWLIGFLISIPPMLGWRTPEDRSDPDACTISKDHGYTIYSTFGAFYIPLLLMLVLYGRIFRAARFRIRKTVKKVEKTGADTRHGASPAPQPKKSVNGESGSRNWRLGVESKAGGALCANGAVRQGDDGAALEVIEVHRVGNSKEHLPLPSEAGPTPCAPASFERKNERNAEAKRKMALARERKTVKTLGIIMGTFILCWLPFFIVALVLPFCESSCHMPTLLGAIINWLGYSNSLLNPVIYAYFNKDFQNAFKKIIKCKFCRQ

Cytochrome P450 3A4 = Cytochrome P450 3A4 (Homo sapiens, UniProt P08684)
Sequence of Cytochrome P450 3A4 (P08684 whole entry): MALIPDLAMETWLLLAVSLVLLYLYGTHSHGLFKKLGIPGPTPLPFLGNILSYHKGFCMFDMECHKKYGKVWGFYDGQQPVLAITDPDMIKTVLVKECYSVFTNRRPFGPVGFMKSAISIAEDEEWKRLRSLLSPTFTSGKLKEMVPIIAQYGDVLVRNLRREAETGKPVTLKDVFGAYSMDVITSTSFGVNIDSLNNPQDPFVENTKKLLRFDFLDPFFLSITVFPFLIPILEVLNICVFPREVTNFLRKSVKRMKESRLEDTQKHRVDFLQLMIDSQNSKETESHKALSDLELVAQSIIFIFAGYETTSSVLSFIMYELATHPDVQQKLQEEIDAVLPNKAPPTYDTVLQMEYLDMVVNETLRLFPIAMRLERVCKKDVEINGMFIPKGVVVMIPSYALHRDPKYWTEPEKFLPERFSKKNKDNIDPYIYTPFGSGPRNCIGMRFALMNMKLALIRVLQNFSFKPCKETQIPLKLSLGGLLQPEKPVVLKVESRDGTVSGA

Substance-P receptor = Substance-P receptor (Homo sapiens, UniProt P25103); test: Displacement of [3H]SR140333 from human recombinant NK1 receptor expressed in CHO cells; format: cell-based
Sequence of Substance-P receptor (P25103 whole entry): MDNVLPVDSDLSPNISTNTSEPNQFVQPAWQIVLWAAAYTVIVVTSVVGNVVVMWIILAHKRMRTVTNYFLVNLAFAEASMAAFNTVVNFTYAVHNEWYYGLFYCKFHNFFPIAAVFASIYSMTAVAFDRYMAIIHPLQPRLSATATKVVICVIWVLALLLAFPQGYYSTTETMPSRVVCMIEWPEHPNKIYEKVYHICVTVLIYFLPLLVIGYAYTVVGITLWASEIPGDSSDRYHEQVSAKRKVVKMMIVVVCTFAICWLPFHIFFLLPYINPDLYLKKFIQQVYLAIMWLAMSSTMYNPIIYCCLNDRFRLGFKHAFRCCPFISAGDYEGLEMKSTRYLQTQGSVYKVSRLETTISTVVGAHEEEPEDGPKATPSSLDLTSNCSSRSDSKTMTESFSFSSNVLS

[2] = molecular target: T2, 5-hydroxytryptamine receptor 1A (Homo sapiens) (UniProt P08908); test: as §1; format: cell-based
T2 sequence (whole entry): T1 sequence (P08908 whole entry)

Substance-K receptor = molecular target: T3, Substance-K receptor (Homo sapiens, UniProt P21452); test: Displacement of [3H]SR48968 from human recombinant NK2 receptor expressed in CHO cells; format: cell-based
T3 sequence (P21452 whole entry): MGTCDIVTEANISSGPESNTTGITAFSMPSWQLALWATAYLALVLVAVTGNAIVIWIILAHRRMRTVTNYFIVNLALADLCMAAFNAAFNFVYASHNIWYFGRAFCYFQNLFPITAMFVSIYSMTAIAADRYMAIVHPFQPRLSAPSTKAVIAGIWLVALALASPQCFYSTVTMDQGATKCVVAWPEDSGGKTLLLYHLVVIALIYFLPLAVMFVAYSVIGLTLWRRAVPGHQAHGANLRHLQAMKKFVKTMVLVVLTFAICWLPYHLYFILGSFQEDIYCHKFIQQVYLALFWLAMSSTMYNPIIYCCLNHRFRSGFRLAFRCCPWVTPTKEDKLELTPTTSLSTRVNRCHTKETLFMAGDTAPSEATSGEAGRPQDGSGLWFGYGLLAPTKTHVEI

| Structure (SMILES) | EC50 [1] | IC50 (Cytochrome P450 3A4) | Activity [2] | also measured |
| --- | --- | --- | --- | --- |
| CN1CCc2cc3c(cc2C(=O)Cc2ccc4c(c2C1)OCO4)OCO3 [PROTOPINE] | > 100 µM | > 80 µM | – | – |
| Ic1ccccc1CN[C@@H]1C2CCN(CC2)[C@@H]1C(c1ccccc1)c1ccccc1 (relative stereo) | – | – | – | EC50 (Substance-P receptor): 0.0244 µM |
| C[N+]1(C)[C@H]2Cc3cc4c(cc3[C@@H]1Cc1cc3c(cc12)COC3)OCO4 [CALIFORNIDINE] | > 100 µM | > 80 µM | inactive | – |
| COc1cc2c(cc1O)[C@@H]1Cc3cc4c(cc3[C@H](C2)N1C)OCO4 [CARYACHINE] | 9 µM | – | 5 µM | – |
| COc1cc(-c2oc3cc(O)cc(O)c3c(=O)c2O[C@@H]2O[C@H](CO[C@@H]3O[C@@H](C)[C@H](O)[C@@H](O)[C@H]3O)[C@@H](O)[C@H](O)[C@H]2O)ccc1O [NARCISSIN] | – | > 80 µM | – | – |
| CN1[C@H]2Cc3cc4c(cc3[C@@H]1Cc1cc3c(cc12)OCO3)OCO4 [ESCHOLTZINE] | 11 µM | – | – | Ki [1]: 6 µM |
| COc1cc2c(cc1O)C[C@H]1c3c(cc(OC)c(OC)c3-2)CCN1C | 0.16 µM | – | – | Ki [1]: 0.085 µM |
| CC(C)[C@H](NC(=O)[C@@H](Cc1c[nH]c2ccccc12)NC(=O)[C@H](Cc1ccc(O)cc1)NC(=O)[C@@H](N)CC(=O)O)C(=O)N[C@H](Cc1c[nH]c2ccccc12)C(=O)N[C@H](Cc1c[nH]c2ccccc12)C(=O)N[C@@H](CCCCN)C(N)=O (H-DY[dW]V[dW][dW]K-NH2) | – | – | – | EC50 (Substance-K receptor): 0.0781 µM |
| O=c1c(O)c(-c2ccc(O)c(O)c2)oc2cc(O)cc(O)c12 [QUERCETIN] | > 100 µM | – | inactive | – |
